The values below come from US8883486B2, “Arrestin biosensor” (Universite de Montreal, priority 2004, dated 2014).

Entries after “also recorded” stand apart in the source; their conditions may differ.

In assay [1] the target is T1, V2R (Homo sapiens, UniProt P30518). As to conditions: ligand is inverse agonist in the AC pathway; leads to activation of the ERK cascade; cited from earlier work.
Target sequence in this assay (P30518 whole entry): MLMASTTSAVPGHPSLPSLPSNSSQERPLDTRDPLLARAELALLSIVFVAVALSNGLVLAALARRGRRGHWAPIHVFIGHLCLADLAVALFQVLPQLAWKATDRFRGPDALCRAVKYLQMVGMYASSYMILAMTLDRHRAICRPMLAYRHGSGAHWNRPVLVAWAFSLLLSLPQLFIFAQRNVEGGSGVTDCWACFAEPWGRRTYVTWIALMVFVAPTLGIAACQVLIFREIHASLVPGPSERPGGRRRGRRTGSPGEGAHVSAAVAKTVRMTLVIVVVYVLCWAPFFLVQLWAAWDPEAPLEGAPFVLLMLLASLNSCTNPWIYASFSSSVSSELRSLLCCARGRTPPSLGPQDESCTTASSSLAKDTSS
Target sequence in this assay (P32121 whole entry partner): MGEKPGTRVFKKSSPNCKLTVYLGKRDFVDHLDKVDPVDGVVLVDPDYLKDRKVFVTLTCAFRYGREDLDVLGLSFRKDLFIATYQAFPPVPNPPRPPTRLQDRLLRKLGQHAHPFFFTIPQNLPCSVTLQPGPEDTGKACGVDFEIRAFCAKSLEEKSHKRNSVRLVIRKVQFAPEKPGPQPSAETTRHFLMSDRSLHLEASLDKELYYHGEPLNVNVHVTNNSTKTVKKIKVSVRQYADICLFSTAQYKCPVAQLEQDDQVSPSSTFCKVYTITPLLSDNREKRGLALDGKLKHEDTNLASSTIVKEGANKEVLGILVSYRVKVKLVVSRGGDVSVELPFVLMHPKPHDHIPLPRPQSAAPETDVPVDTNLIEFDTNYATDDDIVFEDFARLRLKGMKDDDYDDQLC
Assay [2] concerns the target T1, V2R. The assay is described as follows: Intramolecular BRET1 of double-brilliance β-arr (Luc-β-arr-YFP): conformational change of β-arr. Also noted: expressed in transfected cells; host or cells: HEK293. Format: cell-based. As to conditions: HEK293 cells co-expressing V2R and Luc-β-arr-YFP. (In general: BRET reads energy transfer from a luciferase to a nearby fluorophore.)
Target sequence in this assay (P30518 whole entry): as the sequence (P30518 whole entry) above
Experimental: HEK293 cells were transfected with the indicated plasmids and BRET was measured at 25° C. in the presence of coelenterazine h. […] Data are the mean±s.e.m. of at least three independent experiments. *P<0.01 between treated and control condition.
The basal BRET signals were subtracted from each condition to express the data as ligand-induced BRET increase.
BRET assays. […] Briefly, cells were distributed in 96-well microplates (Corning, Corning, USA) and incubated with or without agonist for the indicated time at 25° C. The appropriate Luc substrate was added to a final concentration of 5 mM, either simultaneously with the agonist (time course) or following agonist treatment (single measurement or dose dependency), and readings were collected using a Multilabel Reader Mithras LB 940 (Berthold Technologies, Bad Wildbad, Germany). […] The BRET signal was determined by calculating the ratio of the light emitted by the fluorescent acceptor and the light emitted by Luc. The values were corrected by subtracting the background BRET signals detected when Luc-β-arr was expressed alone.

With `CCOc1ccc2c(c1)C1(CCC(OCCN3CCOCC3)CC1)C(=O)N2S(=O)(=O)c1ccc(C(=O)NC(C)(C)C)cc1OC` (centres unmarked) [SR121463], the “recruitment of β-arr” value on V2R [1] is “induced the recruitment of β-arr”. In addition, the “ligand-induced intramolecular BRET increase” value at V2R [2] was “significantly lower than that induced by AVP treatment; also recorded: can promote an increase in the BRET signal”.
